From US20240382509A1, “Cannabinoids C- and O-glycosides possessing anti-proliferative and anti-metastatic properties and process for preparation thereof” (Council of Scientific and Industrial Research, priority 2021, published 2024)
Where two headings read alike, the source gives them in different places.

What was measured:
MIAPaCa-2 cells [1] = assay: MTT cell viability assay, MIAPaCa-2; type: cell-based, human
Protocol: (§1) Cell viability assay: The cell viability was determined by the standard MTT assay method. Briefly, Panc-1, HCT-116, A549, PC3, MIAPaca-2, HT-29, MDA-MB-231, MCF7 cells, and fR2cells were seeded in 96 well tissue culture plates (Nunc) at a density of 4×10^3 cells per well and treated with varying concentrations of the test compounds in triplicates. DMSO was taken as a vehicle, and its final concentration was maintained at 0.2% in the culture medium. Doxorubicin was employed as a positive control. After 44 h of incubation, MTT dye solution was added into the medium, and cells were incubated for another 4 h at 37° C. in 5% CO2. The amount of colored formazan derivatives formed was measured by taking optical density (OD) using a microplate reader (TECAN, Infinite M200 Pro) at 570 nm, and the percentage of cell viability was calculated. The IC50 values were calculated using GraphPad Prism software (Version 5.0).

PC3 cells = assay: MTT cell viability assay, PC3; type: cell-based
Protocol: as §1

[2] = test system: human colorectal adenocarcinoma cell line (HT-29); assay: MTT cell viability assay, HT-29; type: cell-based; settings: for IC50: human colorectal adenocarcinoma cell line
Protocol: as §1

[3] = test system: lung adenocarcinoma cells (A549); assay: MTT cell viability assay, A549; type: cell-based
Protocol: as §1

MCF-7 cells = assay: MTT cell viability assay, MCF-7; type: cell-based; settings: breast cancer cell of epithelial origin
Protocol: as §1

Panc-1 cells [4] = assay: MTT cell viability assay, Panc-1; type: cell-based; settings: for IC50: pancreatic cancer cells
Protocol: as §1

HCT-116 cells = assay: MTT cell viability assay, HCT-116; type: cell-based; settings: for IC50: colorectal adenocarcinoma cells
Protocol: as §1

MIAPaCa-2 cells [5] = assay: Cell scatter assay; type: cell-based, human; settings: MIAPaCa-2, 1, 2, 3 μM, 36 h, compared to vehicle and parent molecule
Protocol: Cell scatter assay MIAPaCa-2 cells were seeded onto a 12 well plate at a seeding density of 500 cells/well and kept for 4-5 days, and there was the formation of scatter colonies since the cell line itself is a metastatic cell line. Accordingly, they were treated with 1 μM, 2 μM & 3 μM of compound 2, 2a, 2b, 3, 3a, 4, 4a & 4b for 36 h, and upon termination, they were washed with PBS and observed under an inverted microscope at 20× magnification (FIG. 3).

Panc-1 cells [6] = assay: Colony formation assay; type: cell-based; settings: Panc-1, 1000 cells/well, 5 days, compared to corresponding parent compounds
Protocol: Colony formation assay. […] cells were seeded onto 6 well plates with a seeding density of 1000 cells/well. The cells after attachment were treated with 2 (2a, 2b), 3 (3a, 3b), 4 (4a, 4b) along with DMSO as a vehicle control and incubated for 5-6 days. After incubation, the plates were washed with ice-cold PBS, and the cells were fixed with methanol for 5 min. After fixing. the cells were stained with 0.2% crystal violet stain for 1 h. The cells were then washed with distilled water to remove the stain and were observed under an inverted microscope at 20× magnification.
The anti-proliferative properties of glycosidic derivatives were further analysed by colony formation assay in pancreatic cancer cells. The novel C-glycosidic derivatives of compounds 1, 2, 3 and 4 viz 1b, 2b, 3b & 4b display anti-proliferative property (FIG. 2). Panc-1cells were seeded onto 6 well plates at seeding density 1000 cells/well and treated with indicated concentration of 1b, 2b, 3b and 4b derivatives along with their parent compounds and DMSO as vehicle for 5 days. Upon termination the cells were stained with crystal violet and images of field were photographed.

[7] = MTT cell viability assay, fR2 normal epithelial cells; type: cell-based, human; settings: human, fR2 normal epithelial cells; MTT, 48 h; normal epithelial cell line; read-out: Cytotoxicity (IC50) fR2
Protocol: as §1

[8] = test system: 4T1 mouse mammary carcinoma cells; assay: 4T1 allograft breast cancer model, anti-tumor and anti-metastatic efficacy; type: in vivo; settings: tumor lysate immunoblot, 30 mg/kg
Protocol: In vivo anti-metastatic and anti-tumor efficacy studies. 4T1 mouse mammary carcinoma cells is a highly aggressive cell line that forms tumors when grafted in Balb/c mice. […] All the in vivo experimental protocols were approved by the Institutional Animal Ethics Committee, CPCSEA, of the Indian Institute of Integrative Medicine, Jammu. The animals were maintained at 22° C. with a 12 h light-dark cycle and free access to feed and water inside the institutional animal house. Proper care was taken to maintain them in a healthy condition and to avoid any risk of possible pathogenic contaminations. For subcutaneous implantation of 4T1 cells, the Balb/c mice were distributed into four groups bearing five mice in each group. For tumor induction, 1.5 million 4T1 cells were suspended in serum-free media and injected into the mammary pad of the animal and kept in the animal house for tumor induction. After the tumor reached an adequate size (30-150 mm^3) the mice in the allotted groups were treated with vehicle (normal saline), 15 and 30 mg/kg 2a & 30 mg/kg DIM (positive control) for every alternate day and was continued for two weeks. After the treatment, the mice were sacrificed by cervical dislocation, and the tumor was dissected out from the mammary pad, the tumor volume was measured, and images were taken. Subsequently, to examine the anti-metastatic property of the compound 2a, the chest cavity was dissected to remove the lungs, and after washing with PBS, the metastatic nodules in the lung due to 4T1 migration were checked and subsequently counted.
The anti-proliferative as well as anti-metastatic role of compound 2a was studied in 4T1 allograft breast cancer model. Briefly, 1.5×10^6 4T1 mammary breast cancer cells were injected in mouse mammary pad and kept undisturbed until the formation of tumor. Subsequently, the mice were treated with 15 and 30 mg/kg of compound 2a along with a positive control 30 mg/kg di-indoyl methane (DIM) molecule and normal saline as vehicle. The drugs were administered intraperitonially for each alternate day for 2 weeks. The animals were sacrificed and tumours were harvested from the mammary pad and tumor weight was measured (FIG. 7a & b). Moreover, the lungs were also removed and photographed to study the presence of metastatic patches. […] Furthermore, the tumors were subjected to tissue lysis and immunoblot analysis was performed to study the expression of Snail-1. Twist-1, STAT-3, Vimentin and E-cadherin.

[9] = MTT, 48 h, read-out: Cytotoxicity (IC50) MIAPaCa-2
[10] = MTT, 48 h, read-out: Cytotoxicity (IC50) PC3
[11] = MTT, 48 h, read-out: Cytotoxicity (IC50) HT-29
[12] = MTT, 48 h, read-out: Cytotoxicity (IC50) A549
[13] = MTT, 48 h, read-out: Cytotoxicity (IC50) MCF-7
[14] = MTT, 48 h, read-out: Cytotoxicity (IC50) Panc-1
[15] = MTT, 48 h, read-out: Cytotoxicity (IC50) HCT-116
[16] = Homo sapiens, MIA PaCa-2, 48 h, MTT, 48 h, read-out: Cytotoxicity (IC50) MIAPaCa-2
[17] = Homo sapiens, PC-3, 48 h, MTT, 48 h, read-out: Cytotoxicity (IC50) PC3
[18] = Homo sapiens, HT-29, 48 h, MTT, 48 h, read-out: Cytotoxicity (IC50) HT-29
[19] = Homo sapiens, A549, 48 h, MTT, 48 h, read-out: Cytotoxicity (IC50) A549
[20] = Homo sapiens, MCF7, 48 h, MTT, 48 h, read-out: Cytotoxicity (IC50) MCF-7
[21] = Homo sapiens, PANC-1, 48 h, MTT, 48 h, read-out: Cytotoxicity (IC50) Panc-1
[22] = Homo sapiens, HCT-116, 48 h, MTT, 48 h, read-out: Cytotoxicity (IC50) HCT-116

SMILES	IC50 (MIAPaCa-2 cells [1]; [9]) [µM]	IC50 (PC3 cells; [10]) [µM]	IC50 [2, 11] [µM]	IC50 [3, 12] [µM]	IC50 (MCF-7 cells; [13]) [µM]	IC50 (Panc-1 cells [4]; [14]) [µM]	IC50 (HCT-116 cells; [15]) [µM]	IC50 (MIAPaCa-2 cells [1]; [16]) [µM]	IC50 (PC3 cells; [17]) [µM]	IC50 [2, 18] [µM]	IC50 [3, 19] [µM]	IC50 (MCF-7 cells; [20]) [µM]	IC50 (Panc-1 cells [4]; [21]) [µM]	cell scattering (MIAPaCa-2 cells [5])	anti-proliferative potential in colony formation assay (Panc-1 cells [6])	IC50 (HCT-116 cells; [22]) [µM]	other results
CCCCCc1cc(O)c2c(c1)OC(C)(C)[C@@H]1CCC(C)=C[C@@H]21 [Compound 2, Δ^9-tetrahydrocannabinol, reference compound]	4.47	> 100	> 100	11.7	43	21.1	19										
CCCCCc1cc2c(c(O)c1[C@@H]1OC(CO)[C@@H](O)C(O)C1O)[C@@H]1C=C(C)CC[C@H]1C(C)(C)O2 (stereo partly drawn) [Compound 2b, Δ^9-tetrahydrocannabinol-2-C-β-D-glucopyranoside]								1.59	28	10.8	1.32	7.4	3.16	typical clumping of scatter cells	strong anti-proliferative potential	43.2	fold anti-proliferative activity compared to parent compound, HT-29 ([2]; ratio of IC50 parent 2 vs derivative): more than 10 fold; fold activity compared to parent compound, pancreatic cancer cells (Panc-1 cells [4]; ratio of IC50 parent vs derivative, Panc-1): 6.6 fold
CCCCCc1cc(O)c2c(c1)OC(C)(C)[C@@H]1CC=C(C)C[C@@H]21 [Compound 3, Δ^8-tetrahydrocannabinol, reference compound]	2.46	28	> 100	11.6	26.7	50.9	27.3										
CCCCCc1cc(O[C@@H]2OC(CO)[C@@H](O)C(O)C2O)c2c(c1)OC(C)(C)c1ccc(C)cc1-2 (stereo partly drawn) [Compound 4a, Cannabinol-1-O-β-D-glucopyranoside]														typical clumping of scatter cells			IC50 (MIAPaCa-2 cells [1]; Homo sapiens, MIA PaCa-2, 48 h, read-out: Cytotoxicity (IC50) MIAPaCa-2, MTT, 48 h): 2.58 µM; IC50 at 48 h [7]: > 100 µM; IC50 (PC3 cells; Homo sapiens, PC-3, 48 h, read-out: Cytotoxicity (IC50) PC3, MTT, 48 h): 51.4 µM; IC50 ([2]; Homo sapiens, HT-29, 48 h, read-out: Cytotoxicity (IC50) HT-29, MTT, 48 h): 3.53 µM; IC50 ([3]; Homo sapiens, A549, 48 h, read-out: Cytotoxicity (IC50) A549, MTT, 48 h): 3.01 µM; IC50 (MCF-7 cells; Homo sapiens, MCF7, 48 h, read-out: Cytotoxicity (IC50) MCF-7, MTT, 48 h): 7.74 µM; IC50 (Panc-1 cells [4]; Homo sapiens, PANC-1, 48 h, read-out: Cytotoxicity (IC50) Panc-1, MTT, 48 h): 3.16 µM; IC50 (HCT-116 cells; Homo sapiens, HCT-116, 48 h, read-out: Cytotoxicity (IC50) HCT-116, MTT, 48 h): 2.98 µM
CCCCCc1cc2c(c(O)c1[C@@H]1OC(CO)[C@@H](O)C(O)C1O)-c1cc(C)ccc1C(C)(C)O2 (stereo partly drawn) [Compound 4b, Cannabinol-2-C-β-D-glucopyranoside]								8.31	39	11.5	22.6	43.1	13.9	typical clumping of scatter cells	strong anti-proliferative potential	3	fold anti-proliferative activity compared to parent compound, HCT-116 (HCT-116 cells; ratio of IC50 parent 4 vs derivative): > 15 fold
c1ccc2c(Cc3c[nH]c4ccccc34)c[nH]c2c1 [DIM, di-indoyl methane, reference compound]																	tumor expression of Snail-1, STAT-3 and Vimentin (positive control) [8]: decreases significantly
